Experimental findings from patent US20150342954A1, “2-BENZYL, 3-(PYRIMIDIN-2-YL) SUBSTITUTED PYRAZOLES USEFUL AS SGC STIMULATORS” (IRONWOOD PHARMACEUTICALS, INC., priority 2011, published 2015) are described below.

pEC50: −log10 of the molar value. Like-named read-outs stand apart in the source and are kept apart here.

This assay deals with T1, soluble guanylate cyclase (sGC) (Homo sapiens, UniProt Q02108+Q02153).
T1 construct: endogenously expressing soluble guanylate cyclase (sGC); endogenous in cells; host or cells: HEK293
T1 sequence (Q02153 1-619): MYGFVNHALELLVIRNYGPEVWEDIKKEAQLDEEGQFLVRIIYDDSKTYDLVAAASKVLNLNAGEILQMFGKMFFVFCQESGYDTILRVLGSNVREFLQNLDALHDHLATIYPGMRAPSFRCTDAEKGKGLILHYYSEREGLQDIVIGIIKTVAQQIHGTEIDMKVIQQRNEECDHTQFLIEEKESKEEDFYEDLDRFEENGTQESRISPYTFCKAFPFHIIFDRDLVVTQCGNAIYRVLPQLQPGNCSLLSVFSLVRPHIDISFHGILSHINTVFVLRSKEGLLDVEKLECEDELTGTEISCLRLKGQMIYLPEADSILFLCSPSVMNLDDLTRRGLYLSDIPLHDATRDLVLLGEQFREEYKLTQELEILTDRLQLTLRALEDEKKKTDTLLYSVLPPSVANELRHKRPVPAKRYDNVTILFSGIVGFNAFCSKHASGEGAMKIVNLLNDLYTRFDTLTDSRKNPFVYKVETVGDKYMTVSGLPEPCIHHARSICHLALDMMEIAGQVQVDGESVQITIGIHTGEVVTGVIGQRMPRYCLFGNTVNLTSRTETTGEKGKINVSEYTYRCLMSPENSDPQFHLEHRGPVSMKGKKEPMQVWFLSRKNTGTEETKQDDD
T1 sequence (Q02108 1-690): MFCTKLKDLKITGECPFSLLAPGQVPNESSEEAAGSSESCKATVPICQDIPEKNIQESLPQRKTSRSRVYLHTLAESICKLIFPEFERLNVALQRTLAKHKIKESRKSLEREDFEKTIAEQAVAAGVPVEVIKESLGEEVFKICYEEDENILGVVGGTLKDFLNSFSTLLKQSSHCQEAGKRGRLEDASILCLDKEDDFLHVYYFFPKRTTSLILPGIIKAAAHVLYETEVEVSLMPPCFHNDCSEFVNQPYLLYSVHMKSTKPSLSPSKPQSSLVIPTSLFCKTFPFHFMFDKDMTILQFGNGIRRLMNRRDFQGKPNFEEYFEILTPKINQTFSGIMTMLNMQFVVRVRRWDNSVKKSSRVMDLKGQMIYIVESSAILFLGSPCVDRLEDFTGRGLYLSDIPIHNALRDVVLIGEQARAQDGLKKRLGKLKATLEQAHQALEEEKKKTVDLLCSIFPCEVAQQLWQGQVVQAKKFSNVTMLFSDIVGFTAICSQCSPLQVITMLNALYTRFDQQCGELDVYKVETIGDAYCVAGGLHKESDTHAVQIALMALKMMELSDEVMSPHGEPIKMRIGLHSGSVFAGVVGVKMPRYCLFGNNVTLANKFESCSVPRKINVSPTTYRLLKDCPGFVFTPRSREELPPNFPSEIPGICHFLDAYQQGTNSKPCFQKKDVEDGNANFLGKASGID
Nature of the assay: sGC-HEK-cGMP assay (run with SNP incubation). Type of assay: cell-based. Particulars: for Emax: Table 3A, 10 μM SNP, 100% = 30 μM BAY 41-2272 with 10 μM SNP, read-out: HEK assay Emax-unconstrained (Percent); for HEK MEC-10: concentration that would elicit 10% of the Emax in the presence of 10 μM SNP; for HEK MEC-10 / pEC50: Table 3D; for pEC50: in the presence of 10 μM SNP. The procedure:
Biological Activity Measurement by the sGC-HEK-cGMP Assay
(Assay Run with SNP Incubation)
Human embryonic kidney cells (HEK293), endogenously expressing soluble guanylate cyclase (sGC), were used to evaluate the activity of test compounds. Compounds stimulating the sGC receptor should cause an increase in the intracellular concentration of cGMP. HEK 293 cells were seeded in Dulbecco's Modification of Eagle's Medium supplemented with fetal bovine serum (10% final) and L-glutamine (2 mM final) in a 2004 volume at a density of 1×10^5 cells/well in a poly-D-lysine coated 96 well flat bottom plate and grown overnight at 37° C. Medium was aspirated and cells were washed with 1× Hank's Buffered Saline Salt Solution (2004). Cells were then incubated for 15 minutes at 37° C. with 0.5 mM 3-isobutyl-1-methylxanthine (2004). Test article and sodium nitroprusside were then added to the assay mixture (24 each) and incubated at 37° C. for 10 minutes. After the 10 minute incubation, the assay mixture was aspirated and 0.1M HCl (2004) was added to the cells. The plate was incubated at 4° C. for 30 minutes in the 0.1M HCl to stop the reaction and lysed the cells. The plates were then centrifuged at 1,200 g for 5 minutes at room temperature. Supernatants were collected and transferred to a new flat bottom 96 well plate for analysis. Vehicle controls were carried out using DMSO (1%). A known sGC stimulator, BAY 41-2272, was used as the positive control. Samples were diluted with an equal volume of 1 M Ammonium Acetate (pH 7) to neutralize samples for better chromatography. A 2×cGMP standard curve was prepared in 0.1 M HCl and then diluted with an equal volume of 1 M Ammonium Acetate, with the following final concentrations in nM: 1024, 512, 256, 128, 64, 32, 16, 8, 4, 2, 1.cGMP concentrations were determined from each sample using the LC/MS conditions (Table 2 below) and calculated standard curve. EC50 values were calculated from concentration-response curves generated with GraphPad Prism Software.

Setting [1] is: top of concentration-response curve not fitted to 100%.
Where [2] appears, read: top of concentration-response curve not fitted to 100%, read-out: HEK assay EC50-unconstrained.

The Emax is the maximal effect, on the per cent scale that the assay sets. One may read the pEC50 as −log10 of the EC50, conventionally taken in molar units.

As to `O=c1[nH]c(-c2nn(Cc3ccccc3F)c(-c3ccon3)c2F)ncc1F` [Compound 3], the “HEK MEC-10” value is “D (1 to <10 μM)”. In addition, the Emax under setting [1] is not below 120%. Further, where the note is “read-out: HEK assay EC50”, the pEC50 was more than 4.70. Further, under setting [2], the pEC50 was 4.30 to 5.00.
With `Oc1nc(-c2cc(-c3ccon3)n(Cc3ccccc3F)n2)ncc1Sc1ccc(F)cc1` [Compound 4, 2-(1-(2-fluorobenzyl)-5-(isoxazol-3-yl)-1H-pyrazol-3-yl)-5-(4-fluorophenylthio)pyrimidin-4-ol], the “HEK MEC-10” value was “C (0.1 to <1 μM)”. In addition, the Emax under setting [1] lay within 60 to 80%. Besides, the pEC50 (read-out: HEK assay EC50) is more than 4.70. In addition, the pEC50 under setting [2] is 5.30 to 6.00.
The corresponding values for `CC1(C(=O)Oc2cnc(-c3cc(-c4ccon4)n(Cc4ccccc4F)n3)nc2N)CC1` [Compound 5] are “C (0.1 to <1 μM)”, 80 to 100%, more than 4.70 and 4.30 to 5.00.
The corresponding values for `Oc1nc(-c2cc(-c3ccon3)n(Cc3ccccc3F)n2)ncc1Sc1ccc(Cl)cc1` [Compound 6, 5-(4-chlorophenylthio)-2-(1-(2-fluorobenzyl)-5-(isoxazol-3-yl)-1H-pyrazol-3-yl)pyrimidin-4-ol] are “C (0.1 to <1 μM)”, 60 to 80%, more than 4.70 and 5.30 to 6.00.
For the compound `Oc1nc(-c2cc(-c3ncco3)n(Cc3ccccc3F)n2)ncc1Sc1ccccn1` [Compound 7, 2-(1-(2-fluorobenzyl)-5-(oxazol-2-yl)-1H-pyrazol-3-yl)-5-(pyridin-2-ylthio)pyrimidin-4-ol], the “HEK MEC-10” value is on record as “B (0.01 to <0.1 μM)”. Under setting [1], the Emax fell in the range of 60 to 80%. Also, the negative logarithm of the EC50 (pEC50) (read-out: HEK assay EC50) is more than 4.70. Further, the pEC50 under setting [2] is 6.30 to 8.00.
The corresponding values for `Nc1nc(-c2cc(-c3ccon3)n(Cc3ccccc3F)n2)ncc1NC(=O)C1(c2ccccc2F)CC1` [Compound 9] are “B (0.01 to <0.1 μM)”, 60 to 80%, more than 4.70 and 6.30 to 8.00.
The corresponding values for `Nc1nc(-c2cc(-c3ccon3)n(Cc3ccccc3F)n2)ncc1NC(=O)C1(c2cccc(F)c2)CC1` [Compound 11] are “B (0.01 to <0.1 μM)”, 60 to 80%, more than 4.70 and 6.30 to 8.00.
The corresponding values for `COc1ccc(C2(C(=O)Nc3cnc(-c4cc(-c5ccon5)n(Cc5ccccc5F)n4)nc3N)CC2)cc1` [Compound 12] are “B (0.01 to <0.1 μM)”, 60 to 80%, more than 4.70 and 6.30 to 8.00.
In the case of `Nc1nc(-c2cc(-c3ccon3)n(Cc3ccccc3F)n2)ncc1NC(=O)C1(c2ccc(F)cc2)CC1` [Compound 13], the “HEK MEC-10” value is “B (0.01 to <0.1 μM)”. Moreover, under setting [1], the Emax lay within 80 to 100%. Also, the pEC50 (read-out: HEK assay EC50) was more than 4.70. Also, the pEC50 under setting [2] was 6.30 to 8.00.
Take `CN(C1CC1)S(=O)(=O)c1cnc(-c2cc(-c3ccon3)n(Cc3ccccc3F)n2)[nH]c1=O` [Compound 14]: the “HEK MEC-10” value was “B (0.01 to <0.1 μM)”. In addition, under setting [1], the Emax fell in the range of 40 to 60%. Where the note is “read-out: HEK assay EC50”, the pEC50 was more than 4.70. Also, the pEC50 under setting [2] was 6.30 to 8.00.
The corresponding values for `Nc1ccnc(-c2cc(-c3ccon3)n(Cc3c(F)ccc(F)c3F)n2)n1` [Compound 15] are “D (1 to <10 μM)”, 20 to 40%, 4.22 to 4.40 and 5.30 to 6.00.
Consider `CN(Cc1ccccc1)S(=O)(=O)c1cnc(-c2cc(-c3ccon3)n(Cc3ccccc3F)n2)[nH]c1=O` [Compound 16], for which the “HEK MEC-10” value is recorded as “C (0.1 to <1 μM)”. Besides, under setting [1], the Emax lay within 60 to 80%. The pEC50 (read-out: HEK assay EC50) is more than 4.70. The pEC50 under setting [2] was 6.00 to 6.30.
For `Oc1nc(-c2cc(-c3ccon3)n(Cc3ccccc3F)n2)ncc1Sc1ccc(C(F)(F)F)cc1` [Compound 17, 2-(1-(2-fluorobenzyl)-5-(isoxazol-3-yl)-1H-pyrazol-3-yl)-5-(4-(trifluoromethyl)phenylthio)pyrimidin-4-ol], where the note is “read-out: HEK assay EC50”, the pEC50 was 2.15 to 2.92.
As to `Oc1nc(-c2cc(-c3ccon3)n(Cc3ccccc3F)n2)ncc1Sc1ccccn1` [Compound 18, 2-(1-(2-fluorobenzyl)-5-(isoxazol-3-yl)-1H-pyrazol-3-yl)-5-(pyridin-2-ylthio)pyrimidin-4-ol], the “HEK MEC-10” value is “C (0.1 to <1 μM)”. In addition, the Emax under setting [1] is 60 to 80%. The pEC50 (read-out: HEK assay EC50) was 4.40 to 4.70. The pEC50 under setting [2] is 4.30 to 5.00.
The corresponding values for `O=c1[nH]c(-c2cc(-c3ccon3)n(Cc3c(F)ccc(F)c3F)n2)ncc1F` [Compound 19, 5-fluoro-2-(5-(isoxazol-3-yl)-1-(2,3,6-trifluorobenzyl)-1H-pyrazol-3-yl)pyrimidin-4-ol] are “D (1 to <10 μM)”, 20 to 40%, 4.22 to 4.40 and 6.00 to 6.30.
In the case of `Oc1nc(-c2cc(-c3ncco3)n(Cc3ccccc3F)n2)ncc1Sc1ccccc1` [Compound 20, 2-(1-(2-fluorobenzyl)-5-(oxazol-2-yl)-1H-pyrazol-3-yl)-5-(phenylthio)pyrimidin-4-ol], the “HEK MEC-10” value is recorded as “C (0.1 to <1 μM)”. Further, the Emax under setting [1] fell in the range of 40 to 60%. The negative-log EC50 (pEC50) (read-out: HEK assay EC50) was 4.40 to 4.70. The pEC50 under setting [2] is 5.30 to 6.00.
The corresponding values for `O=c1[nH]c(-c2cc(-c3ccon3)n(Cc3ccccc3F)n2)ncc1S(=O)(=O)N1CCCC1` [Compound 21] are “C (0.1 to <1 μM)”, 60 to 80%, more than 4.70 and 6.00 to 6.30.
The corresponding values for `CN(C)S(=O)(=O)c1cnc(-c2cc(-c3ccon3)n(Cc3ccccc3F)n2)[nH]c1=O` [Compound 22] are “D (1 to <10 μM)”, 80 to 100%, more than 4.70 and 5.30 to 6.00.
Take `Fc1cnccc1Cn1nc(-c2ncccn2)cc1-c1ccon1` [Compound 23]: the “HEK MEC-10” value is recorded as “E (10 to 50 μM)”.
In the case of `CN(c1ccccc1)S(=O)(=O)c1cnc(-c2cc(-c3ccon3)n(Cc3ccccc3F)n2)[nH]c1=O` [Compound 25], the “HEK MEC-10” value is reported as “C (0.1 to <1 μM)”. Also, the Emax under setting [1] lay in the range of 60 to 80%. For the same compound, the pEC50 (read-out: HEK assay EC50) is more than 4.70. In addition, the pEC50 under setting [2] was 6.00 to 6.30.
